Assay results reported in US6071896A, “Suppression of thromboxane levels by percutaneous administration of aspirin” (Gundersen Clinic, Ltd., priority 1998, dated 2000).
“And” between values parts separate entries of the source, which are not always exact repeats. Equal entries are not always repeated.

Assays:
[1] = test system: thromboxane-B2; experiment: Thromboxane (thromboxane-B2) blood levels after topical aspirin, Example 1; type: in vivo, human
Description: Five healthy adult volunteers (3 male, 2 female) were studied. Each refrained from ingesting oral aspirin for two weeks prior to study. Prior to treatment in accordance with the present invention, baseline thromboxane levels and hemoccults were obtained.
Thromboxane levels were measured by assaying for blood levels of thromboxane-B2 in accordance with the method described in Braden et al., Circulation 82:178 (1990). Thromboxane levels can also be measured in either blood or urine according to known methods which include those without limitation disclosed in the following references: Hirsh et al., supra; Robertson et al., N. Engl. J. Med. 304:998 (1981); Pedersen et al., N. Engl. J. Med. 311:1206 (1984); Patrignani et al., J. Clin. Invest. 69:1366 (1982); Preston et al., 304:76 (1981); Hirsh et al., N. Engl. J. Med. 304:685 (1981).
A preparation of aspirin in isopropyl alcohol and propylene glycol was prepared by mixing "Aspirsol"™ topical aspirin (NDC54102-001-01; commercially available from TERRI Pharmaceuticals, Inc., PO Box 6454, Kingwood, Tex. 77325) in accordance with the package instructions except that 8 ml instead of 10 ml of the suspending solution was used. The resulting solution contained approximately 9% aspirin rather than the 7-8% indicated on the package label.
After base levels of thromboxane had been measured, the aspirin solution was first applied on the morning of Day 1 to the skin of the human subjects within an hour of mixing by rubbing the aspirin solution on the arms and/or chest of the subject. The application was repeated with freshly prepared solution for each of four additional mornings (Days 2-5) in the same manner. Between applications the subjects followed their normal schedule of bathing and showering. Eight hours after the fifth application (on Day 5) blood was drawn for salicylate levels and thromboxane levels to be determined. With one subject, blood was drawn for TXA2 levels every day just before application of a new aspirin solution (i.e., approximately 24 hours after application of the previous aspirin solution). Hemoccults were also tested.
Two of the subjects continued daily application for another five days (total ten days). For Days 6 and 7, aspirin solutions freshly prepared as described above were used. Beginning with Day 8, a different aspirin preparation was used. This second preparation was prepared by crushing aspirin tablets containing approximately 975 mg aspirin to form a powder. The powder was then formed into a paste with approximately 2 ml of distilled water. This paste was then mixed with 4 ml propylene glycol and 4 ml ethanol to produce approximately 10 ml of a cloudy solution. This cloudy solution was then filtered to remove excipients and other insoluble material found in the crushed aspirin tablets. After filtering, approximately 10 ml of a clear solution was obtained which contained approximately 9% aspirin. 8 ml of the resulting solution was used in each application. This second solution was applied to the two continuing subjects as previously described. Salicylate and thromboxane levels were checked after the tenth day.

[2] = physchem; type: physicochemical
[3] = Plasma aspirin and salicylate after dermal aspirin (NICI-GCMS), Example 4; type: in vivo, human; details: dermal aspirin 750 mg, single application
Description: (§1) The preservation of vascular cyclooxygenase is consistent with the low bioavailability of the dermal aspirin. Plasma aspirin and salicylate were determined using a highly sensitive assay that can measure levels of <0.1 ng/ml. Following oral aspirin 325 mg or 162 mg, peak plasma aspirin levels were 2.0 and 1.3 ug/ml, respectively. In contrast, following dermal aspirin, plasma levels peaked at 237±114 ng/ml and plasma salicylate peaked at 788±114 ng/ml.
Aspirin was applied in a dose of 750 mg on one limb over a 15 min interval. Samples were drawn from the opposite arm. Blood was withdrawn into heparin (10 U/ml final concentration) and potassium fluoride (5% final concentration), the latter to prevent ex vivo metabolism of aspirin by plasma esterases. The plasma was separated immediately and stored at […] until analyzed. Aspirin and its metabolite, salicylic acid, were measured by NICI-GCMS using deuterium-labelled analogues as internal standards, as previously described [Clark, supra].

[4] = test system: skin; experiment: Skin reactions and histology after dermal aspirin; type: in vivo, human
[5] = Plasma aspirin levels following oral aspirin; type: in vivo; details: human
Description: as §1

[6] = test system: pregnancy-induced hypertension and preeclamptic toxemia; details: daily doses, third trimester, women at high risk; cited from earlier work
[7] = Subject 1, baseline 401, about 24 h after previous application

For `CC(=O)Oc1ccccc1C(=O)O` [aspirin, acetyl salicylic acid], the “Decrease in thromboxane levels after five daily applications” value ([1]; Day 5, subject 3 not considered) was “at least 50%”, the “Thromboxane level, Day 3” value [1, 7] was 250 ng/cc and the “Thromboxane level, Day 4” value [1, 7] was 199 ng/cc. The “Thromboxane level, Day 5, prior to the Day 5 dose” value ([1]; Subject 1, baseline 401, morning of Day 5) was 105 ng/cc, the “Thromboxane level, Day 2” value ([1]; Subject 1, baseline 401, topical aspirin ~9% solution daily, about 24 h after previous application) was 311 ng/cc and the “Thromboxane level, Day 10” value ([1]; two subjects continuing to ten daily applications, subject 1 baseline 401, subject 2 baseline 372) was 18 ng/cc and 12 ng/cc. For the same compound, the “Suppression of thromboxane levels by Day 10” value ([1]; two subjects, ten daily applications) was 95% and 97%, the degraded at 24 h ([2]; 24 hr, room temperature, propylene glycol and isopropyl alcohol or ethanol (1.7:1 v/v), 94 mg/ml, read-out: Salicylate detected in vehicle (aspirin stability)) was less than 1% and the “Stability of aspirin in vehicle” value ([2]; propylene glycol and alcohol vehicle, 24 hr room temperature) was “stable”. For the same compound, the “Plasma aspirin up to three hours” value [3] was “barely detectable”, the concentration at 24 h ([3]; human, plasma, topical or ocular) was 4 ± 3 ng/mL and the Cmax ([3]; human, plasma, topical or ocular, read-out: Plasma aspirin, about 3 h (peak)) was 237 ± 114 ng/mL. For the same compound, the concentration at 6 h ([3]; human, plasma, topical or ocular, read-out: Plasma aspirin, six hours) was 52 ± 14 ng/mL, the “Subjects with skin reactions, including erythema and peeling” value ([4]; dermal aspirin) was 30 % of subjects and the “Skin reactions with alternate day application” value ([4]; dermal, alternate day, up to 8 weeks) was “without reactions for up to 8 weeks”. For the same compound, the Skin histology ([4]; one subject, 10 days, 250 mg/day) was “no histological changes”, the Cmax ([5]; oral aspirin 75 mg, read-out: Levels following oral aspirin) was 1000 to 2000 ng/mL and the Cmax ([5]; oral aspirin 162 mg, read-out: Peak plasma aspirin level) was 1300 ng/mL. The Cmax ([5]; oral aspirin 325 mg, read-out: Peak plasma aspirin level) was 2000 ng/mL and the “Incidence of pregnancy-induced hypertension and preeclamptic toxemia” value [6] was “significantly reduce the incidence of pregnancy-induced hypertension and preeclamptic toxemia”.
